Measurements: patent US5602278A (priority 1994, dated 1997)
Entries after “also recorded” stand apart in the source; their conditions may differ.

Tests used:
[1] = system: CaNT murine adenocarcinoma; set-up: species or system CBA/Gy fTO mice; conditions: mouse
[2] = system: EMT6 mouse mammary carcinoma cells
[3] = In vitro metabolism by rat liver microsomes under hypoxic or oxic conditions
hypoxic cells = conditions: Wilson et al., 1992; cited from earlier work

Row | SMILES | potentiation of in vivo cytotoxicity by hydralazine [1] | activity compared to radiation, with concomitant hydralazine ([1]; in vivo) | effect of hypoxia and lowered pH on cytotoxicity [2] | effect of lowered extracellular pH on activity [2] | toxicity with reducing enzymes under hypoxia [2] | dependence of rate of metabolism on amount of cyt P450 ([3]; hypoxia, NADPH 1 mM, microsomes 2.0-5.2 nmol cyt P450/ml) | metabolism ([3]; in air or in the presence of boiled microsomes) | metabolism with NADPH ([3]; in the presence of NADPH, microsomes, hypoxia) | major enzyme responsible for activation ([3]; microsomal bioreductive activation) | effect of CO on reductive metabolism ([3]; microsomes 2.9 nmol cyt P450/ml, NADPH 1 mM, hypoxia) | metabolism ([3]; microsomes and cofactors NADH or NADPH, under hypoxia) | conditions required for conversion to an activated alkylating species ([3]; rat liver microsomes, cofactors, inhibitors) | in vivo toxicity | ability to diffuse into the extravascular compartment of tumors (hypoxic cells) | selectivity for hypoxic cells (hypoxic cells)
1 | O=C(O)CCCc1ccc(N(CCCl)OCCCl)cc1 [CHL-HD, 4-[p-(N-2-chloroethoxy N-2-chloroethylamino)phenyl] butanoic acid] | potentiated by the administration of hydralazine 5 min prior or 30 post; also recorded: potentiated by hydralazine | enhanced activity as compared to radiation | both hypoxia and lowered pH in the presence of reducing enzymes potentiate to cytotoxicity | enhance when the extracellular pH is lowered below the physiological 7.4 | greater toxicity with reducing enzymes under hypoxia | there is a relationship between the amount of cyt P450 in the metabolic reaction mixture and the rate of metabolism | very little if any metabolism | metabolism occurs more readily at lower concentrations of cofactor | appears to be cyt P450 | CO inhibits the ability of microsomes to metabolize CHL-HD | is metabolized | reducing enzymes, co-factors and hypoxia were needed to activate CHL-HD to an alkylating species; also recorded: requires hypoxia and reducing enzymes and cofactors | minimal in vivo toxicity |  | 
2 | C[N+](C)([O-])CCCNc1c2ccccc2nc2cccc([N+](=O)[O-])c12 [SN 24030] |  |  |  |  |  |  |  |  |  |  |  |  |  | improved ability to diffuse into the extravascular compartment of tumors | approximately 1500 fold
